# Reference: ChEMBL document CHEMBL1143471, “Synthesis of [1,2,4]triazolo[1,5-a]pyrazines as adenosine A2A receptor antagonists” (Bioorg Med Chem Lett, 2005)
# Columns and labels:
# Adenosine receptor A2a = Adenosine receptor A2a (Rattus norvegicus, UniProt P30543); test: biochemical
# Adenosine receptor A1 = biological target: T1, Adenosine receptor A1 (Rattus norvegicus, UniProt P25099); test: biochemical
# T1 sequence (P25099 whole entry): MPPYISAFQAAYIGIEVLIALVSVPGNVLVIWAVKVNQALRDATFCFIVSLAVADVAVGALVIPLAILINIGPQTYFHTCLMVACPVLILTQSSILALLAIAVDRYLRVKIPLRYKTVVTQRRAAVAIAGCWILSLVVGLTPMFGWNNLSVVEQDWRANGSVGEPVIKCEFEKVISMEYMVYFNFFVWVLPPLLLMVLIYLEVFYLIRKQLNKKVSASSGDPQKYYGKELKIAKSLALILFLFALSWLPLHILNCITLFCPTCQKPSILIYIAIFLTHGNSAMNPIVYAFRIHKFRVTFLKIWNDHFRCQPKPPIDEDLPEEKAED
# Chain of Adenosine receptor A2a (P30543 whole entry): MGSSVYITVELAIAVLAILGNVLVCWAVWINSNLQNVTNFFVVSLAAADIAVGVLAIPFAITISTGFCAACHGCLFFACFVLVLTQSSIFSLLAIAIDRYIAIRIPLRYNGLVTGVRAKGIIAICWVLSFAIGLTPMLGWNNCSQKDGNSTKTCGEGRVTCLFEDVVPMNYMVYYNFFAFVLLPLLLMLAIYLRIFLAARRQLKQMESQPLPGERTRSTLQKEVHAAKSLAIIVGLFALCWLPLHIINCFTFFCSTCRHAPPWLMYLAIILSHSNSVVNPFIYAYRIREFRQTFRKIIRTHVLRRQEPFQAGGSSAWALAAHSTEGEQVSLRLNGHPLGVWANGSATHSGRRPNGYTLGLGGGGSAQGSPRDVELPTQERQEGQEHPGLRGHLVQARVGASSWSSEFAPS
Ki (Adenosine receptor A2a),Ki (Adenosine receptor A1),SMILES
220 nM,,Nc1nc(-c2cccc(C(F)(F)F)c2)cn2nc(-c3ccco3)nc12
330 nM,> 250 nM,Nc1nc(-c2ccc(C(=O)NCCCn3ccnc3)cc2)cn2nc(-c3ccco3)nc12
400 nM,,Nc1nc(-c2ccco2)cn2nc(-c3ccco3)nc12
> 1000 nM,,Nc1nc(-c2ccc(C(F)(F)F)cc2)cn2nc(-c3ccco3)nc12
> 250 nM,> 250 nM,Nc1nc(C(=O)N2CCOCC2)cn2nc(-c3ccco3)nc12
680 nM,> 250 nM,Nc1nc(-c2cccc(C(=O)N3CCN(Cc4ccccc4)CC3)c2)cn2nc(-c3ccco3)nc12
160 nM,,N#Cc1cccc(-c2cn3nc(-c4ccco4)nc3c(N)n2)c1
460 nM,,Nc1nc(-c2cccnc2)cn2nc(-c3ccco3)nc12
630 nM,,Nc1cccc(-c2cn3nc(-c4ccco4)nc3c(N)n2)c1
160 nM,,CC(=O)Nc1cccc(-c2cn3nc(-c4ccco4)nc3c(N)n2)c1
110 nM,,NC(=O)c1cccc(-c2cn3nc(-c4ccco4)nc3c(N)n2)c1
> 250 nM,> 250 nM,Nc1nc(C(=O)N2CCN(Cc3ccccc3)CC2)cn2nc(-c3ccco3)nc12
240 nM,< 250 nM,Nc1nc(-c2cccc(C(=O)N3CCOCC3)c2)cn2nc(-c3ccco3)nc12
360 nM,,Nc1nc(-c2cncnc2)cn2nc(-c3ccco3)nc12
250 nM,,Nc1nc(-c2cccc3cccnc23)cn2nc(-c3ccco3)nc12
680 nM,,CC(C)c1cccc(-c2cn3nc(-c4ccco4)nc3c(N)n2)c1
270 nM,,COc1cccc(-c2cn3nc(-c4ccco4)nc3c(N)n2)c1
140 nM,290 nM,CC(C)NC(=O)c1cccc(-c2cn3nc(-c4ccco4)nc3c(N)n2)c1
75 nM,,CC(=O)c1cccc(-c2cn3nc(-c4ccco4)nc3c(N)n2)c1
> 1000 nM,,N#Cc1ccc(-c2cn3nc(-c4ccco4)nc3c(N)n2)cc1
470 nM,,Nc1nc(-c2cccc(CO)c2)cn2nc(-c3ccco3)nc12

Ki (Adenosine receptor A2a),Ki (Adenosine receptor A1),SMILES
420 nM,,Nc1nc(-c2cccc3ccccc23)cn2nc(-c3ccco3)nc12
> 1000 nM,,CN(C)c1ccc(-c2cn3nc(-c4ccco4)nc3c(N)n2)cc1
70 nM,120 nM,CN(C)C(=O)c1cccc(-c2cn3nc(-c4ccco4)nc3c(N)n2)c1
19 nM,1800 nM,Nc1nc(-c2ccc(C(=O)N3CCOCC3)cc2)cn2nc(-c3ccco3)nc12
1 nM,120 nM,CCCCNC(=O)c1cn2nc(-c3ccco3)nc2c(N)n1
27 nM,160 nM,CN(Cc1ccccc1)C(=O)c1cn2nc(-c3ccco3)nc2c(N)n1
> 1000 nM,,Nc1nc(-c2ccc(CO)cc2)cn2nc(-c3ccco3)nc12
> 1000 nM,,Nc1nc(-c2ccc([N+](=O)[O-])cc2)cn2nc(-c3ccco3)nc12
> 1000 nM,,CCOC(=O)c1ccc(-c2cn3nc(-c4ccco4)nc3c(N)n2)cc1
110 nM,,CS(=O)(=O)c1cccc(-c2cn3nc(-c4ccco4)nc3c(N)n2)c1
> 250 nM,> 250 nM,Nc1nc(C(=O)N2CCN(c3ccncc3)CC2)cn2nc(-c3ccco3)nc12
830 nM,36 nM,Nc1nc(-c2ccc(C(=O)NCCc3ccc(O)cc3)cc2)cn2nc(-c3ccco3)nc12
730 nM,3 nM,Nc1nc(-c2cccc(C(=O)N3CCN(c4ccncc4)CC3)c2)cn2nc(-c3ccco3)nc12
370 nM,,CCOC(=O)c1cccc(-c2cn3nc(-c4ccco4)nc3c(N)n2)c1
> 1000 nM,,Nc1nc(-c2cccc(C(=O)O)c2)cn2nc(-c3ccco3)nc12
> 1000 nM,,Nc1ccc(-c2cn3nc(-c4ccco4)nc3c(N)n2)cc1
180 nM,> 250 nM,Nc1nc(-c2cccc(C(=O)NCCc3ccc(O)cc3)c2)cn2nc(-c3ccco3)nc12
140 nM,,CN(C)c1cccc(-c2cn3nc(-c4ccco4)nc3c(N)n2)c1
460 nM,,Nc1nc(-c2cccc([N+](=O)[O-])c2)cn2nc(-c3ccco3)nc12
28 nM,240 nM,Nc1nc(C(=O)NCCCc2ccccc2)cn2nc(-c3ccco3)nc12

SMILES,Ki (Adenosine receptor A2a),Ki (Adenosine receptor A1)
Nc1nc(C(=O)NCCc2ccc(O)cc2)cn2nc(-c3ccco3)nc12,1 nM,320 nM
CCN(CC)C(=O)c1cccc(-c2cn3nc(-c4ccco4)nc3c(N)n2)c1,1 nM,41 nM
Nc1nc(C(=O)NCc2ccccc2)cn2nc(-c3ccco3)nc12,2 nM,14 nM
